Data taken from the NIST ThermoML archive (doi:10.1016/j.tca.2016.05.011).
± gives the expanded uncertainty stated by the source.

Assay: Boiling temperature at pressure P
Conditions: Liquid, DSC

SMILES	Boiling temperature at pressure P (9.9 kPa) [°C]	Boiling temperature at pressure P (19.82 kPa) [°C]	Boiling temperature at pressure P (29.75 kPa) [°C]	Boiling temperature at pressure P (49.63 kPa) [°C]	Boiling temperature at pressure P (64.61 kPa) [°C]	Boiling temperature at pressure P (29.65 kPa) [°C]	Boiling temperature at pressure P (49.44 kPa) [°C]	Boiling temperature at pressure P (69.2 kPa) [°C]	Boiling temperature at pressure P (101.6 kPa) [°C]	Boiling temperature at pressure P (247.5 kPa) [°C]
CC(C)(C)c1ccccc1O [2-tert-butyl-1-hydroxybenzene]	145.4 ± 1.6	165.5 ± 2.6	178.6 ± 2.3	196.2 ± 3.1	206.1 ± 3.3	–	–	–	–	–
Cc1ccccc1 [toluene]	–	–	–	–	–	72.4 ± 1.8	87.5 ± 2.5	98.0 ± 2.4	111.2 ± 3.2	145.5 ± 4.5
